According to patent publication US5753671A, “Imidazopyridine derivatives as dual histamine (H1) and platelet activating factor (PAF) antagonists” (British Biotech Pharmaceuticals Limited, priority 1994, dated 1998):

Tests used:
[1] = tested on: Histamine Induced Bronchoconstriction; experiment: Histamine Induced Bronchoconstriction in the Anaesthetised Guinea Pig; format: in vivo, guinea pig (male Dunkin-Hartley); settings: Cavia porcellus, 1 h, p.o., histamine infusion 10 μgkg^-1 min^-1 started one hour after oral dosing
Source text: Histamine Induced Bronchoconstriction in the Anaesthetised Guinea Pig
(§1) Following oral administration of test compound or vehicle by oral gavage, male Dunkin-Hartley guinea pigs (350-400 g) were anaesthetised by intraperitoneal injection of 60 mgkg^-1 sodium pentobarbitone (Sagatal, May & Baker UK). Through a midline incision of the neck, the trachea was cannulated and connected to a small animal respirator (Harvard, UK). Animals were artificially ventilated at a rate of 30 breaths per minute with a tidal volume of 8-10 ml to give a resting tracheal inflation pressure of 15 mmHg as measured by a physiological pressure transducer (type P23XL, Spectramed USA) connected to a side arm of the respiratory circuit.
A jugular vein was cannulated for the administration of propranolol and for the infusion of histamine. A carotid artery was cannulated for the measurement of arterial blood pressure via a physiological pressure transducer (type P23XL, Spectramed USA). Blood pressure and tracheal inflation pressure were recorded on a thermal array chart recorder (type TA4000, Gould Electronics UK).
Following a suitable equilibration period, propranolol (1 mgkg^-1 i.v. & 3 mgkg ^-1 s.c. Sigma Chemical Co. UK) was administered to inhibit any resulting catecholamine release following histamine administration.
Histamine infusion (10 μgkg^-1 min^-1 at a rate of 10 mlhr^-1 using a perfusion pump type Perfuser securer FT, B. Braun Germany) was started at the one hour time point following oral administration of the test compound or vehicle. Changes in tracheal inflation pressure and blood pressure of drug treated animals were compared with changes from vehicle treated animals and ED50 values determined. One dose of test compound was investigated per animal.

[2] = tested on: PAF Induced Bronchoconstriction; experiment: PAF Induced Bronchoconstriction in the Anaesthetised Guinea Pig; format: in vivo, guinea pig (male Dunkin-Hartley); settings: 10 mgkg^-1, p.o., PAF 100 ngkg^-1 i.v. bolus one hour after oral dosing
Source text: PAF Induced Bronchoconstriction in the Anaesthetised Guinea Pig
as §1, with “vehicle,” for “vehicle by oral gavage,”, “15mmHg” for “15 mmHg”
A jugular vein was cannulated for the administration of a bolus dose of propranolol and for the later administration of bolus PAF. A carotid artery cannulated for the measurement of arterial blood pressure via a physiological pressure transducer (type P23XL, Spectramed USA). Blood pressure and tracheal inflation pressure were recorded on a thermal array chart recorder (type TA4000, Gould Electronics UK).
Propranolol (1 mgkg^-1 i.v. & 3 mgkg^-1 s.c. Sigma Chemical Co. UK) was administered 10 minutes before PAF in order to prevent the bronchodilatory activity of catecholamines which may be released in response to PAF administration. PAF (100 ngkg^-1 i.v. bolus) was administered at the one hour time point following oral administration of the test compound or vehicle.
Changes in tracheal inflation pressure and blood pressure of drug treated animals were compared with changes from vehicle treated animals and percentage inhibition determined. One dose of test compound was investigated per animal.

[3] = target: T1, Histamine-1 Receptors on Hela-S3 Cells (Homo sapiens, UniProt P35367); experiment: Inhibition of [^3 H]-Pyrilamine Binding to Histamine-1 Receptors on Hela-S3 Cells; settings: 0.5 h, 1 μM test compound, 37° C., 30 minutes, read-out: % Specific Binding
T1 construct: histamine-1 receptors on Hela-S3 cells (American Type Culture Collection); endogenous in cells; host or cells: HeLa S3 cells (American Type Culture Collection), intact cell suspension
T1 sequence (P35367 whole entry): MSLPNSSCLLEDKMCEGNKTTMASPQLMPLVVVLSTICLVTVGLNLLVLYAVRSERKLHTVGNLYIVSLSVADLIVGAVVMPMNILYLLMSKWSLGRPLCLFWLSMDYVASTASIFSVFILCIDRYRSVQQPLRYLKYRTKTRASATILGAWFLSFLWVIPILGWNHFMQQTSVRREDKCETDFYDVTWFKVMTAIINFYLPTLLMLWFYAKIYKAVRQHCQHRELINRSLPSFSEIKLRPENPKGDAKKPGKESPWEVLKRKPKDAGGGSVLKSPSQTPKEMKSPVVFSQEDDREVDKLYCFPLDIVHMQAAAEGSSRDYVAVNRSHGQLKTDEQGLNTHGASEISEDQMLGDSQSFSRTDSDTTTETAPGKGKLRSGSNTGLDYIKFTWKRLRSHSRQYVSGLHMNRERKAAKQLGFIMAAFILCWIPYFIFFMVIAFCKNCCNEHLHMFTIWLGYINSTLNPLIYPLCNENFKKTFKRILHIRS
Description: Inhibition of [^3 H]-Pyrilamine Binding to Histamine-1 Receptors on Hela-S3 Cells
The inhibition of [^3 H]-pyrilamine binding to histamine-1 receptors on Hela-S3 cells (American Type Culture Collection) was determined by isotopic labelling and filtration techniques. A suspension of the cells in buffer (25 ml, 0.5% Bovine Serum Albumin, 0.1% sodium azide, phosphate buffered saline (PBS)) was centrifuged at 1000 rpm for 5 minutes in a JOUAN CR 422 centrifuge, collected, resuspended in buffer (25 ml) and spun again. The cells were counted using a haemocytometer and resuspended in buffer to provide a final concentration of 4.5×10^6 cells ml^-1. A portion of the Hela S3 cell suspension (1 ml) was added to each assay tube containing 25 μl of vehicle (50% DMSO/buffer) or 25 μl of solution containing test compound (dissolved in DMSO and diluted with sufficient PBS to give a final test concentration of 1 μM) and 25 μl 0f [^3 H]-pyrilamine (supplied by Amersham International and diluted with PBS to 3 nM). The tubes were mixed and incubated at 37° C. for 30 minutes. The tubes were then spun at 4° C. at 2000 rpm for 2 minutes. The supematant was removed and the cells resuspended in buffer (repeated x2). The cells were suspended in 300 μl of a 2:1 solution of 1M sodium hydroxide and 1% sodium dodecyl sulphate. The tubes were left overnight before the contents were tranferred to a scintillation vial, treated with 10 ml, OPTIPHASE MP scintillation fluid (OPTIPHASE MP is a trade mark) and the radioactivity counted in a scintillation counter. Non-displcable binding (NDB) was determined using Astemizole (5×10^-5 M) in place of test compounds. Defining the counts for total binding from the vehicle control sample as "TB" and the counts for total binding with antagonist as "TBA" the percentage specific binding (%SB) can be determined from the following equation. [formula] Results

[4] = tested on: PAF-Induced Platelet Aggregation; experiment: Inhibition of PAF-Induced Platelet Aggregation; format: cell-based, rabbit (male New Zealand White); settings: Oryctolagus cuniculus; rabbit platelet-rich plasma, PAF 100 ng.ml^-1 (50 μl aliquot), 37° C.
Description: Inhibition of PAF-Induced Platelet Aggregation
Male New Zealand White rabbits (3.0-3.5 kg) were anaesthetised by intravenous administration of sodium pentobarbitone, […], via a marginal ear vein. The trachea was exposed and connected to a respiratory pump (Havard UK) to provide artificial ventilation. A carotid artery was exposed and cannulated and the animal was exsanguinated. Whole blood was collected in a syringe containing tri-sodium citrate (3.8% w/v) to a ratio of 1 part citrate:9 parts blood.
Collected blood was centrifuged at 180×g for 15 minutes at room temperature (21° C.) to prepare platelet-rich plasma (PRP). The remaining blood was then centrifuged at 1800×g for 10 minutes at room temperature to obtain platelet poor plasma (PPP).
Platelet count of the PRP was measured using a Technicon H1 blood cell differential analyser (Bayer Diagnostics UK) and adjusted with PPP to obtain a final platelet count of 500,000 platelets per μl of plasma, this being the normal physiological platelet count for rabbits. Corrected PRP was left to equilibrate at room temperature for 30 minutes before use.
Aggregation studies were carried out using 4-channel aggregometer (PAP-4C, BioData USA) as follows: 400 μl aliquots of PRP were placed in siliconised cuvettes and incubated to 37° C. for 1 to 2 minutes in the heating block of the aggregometer. Baseline (100% aggregation) was set up using PPP (500 μl in a siliconised cuvette). The PRP was placed into a measuring well of the aggregometer, and a stir bar was added. The sample was stirred at 1000 rpm. The machine was activated to set the 0% aggregation level. Test compound or vehicle (50 μl) was added to the PRP, where any effects on the baseline was noted. PAF (100 ng.ml^-1 as 50 μl aliqout) was added to the PRP 3 minutes after test compound or vehicle. Aggregation was measured for a further 4 minutes after PAF addition and the maximum aggregation over the 4 minutes was recorded.
The investigation of different concentrations of test compound was performed in triplicate. Data were expressed as […] of the sample and test compound data were compared to vehicle data to obtain % inhibition of the PAF-induced aggregation from which IC50 values could be determined.
PAF was made up in sterile saline (NaCl 0.9% w/v) containing BSA (0.25% w/v) from an initial stock solution (10 mg.ml^-1 in EtOH). Test compounds were made up as 1×10^-3 M stock solutions in sterile saline containing molar equivalents of 1N HCI (v/v) or in DMSO.

| SMILES | ED50 [1] [mg/kg] | % Inhibition [2] [%] | activity at 1 µM [3] [%] | IC50 [4] [µM] |
| --- | --- | --- | --- | --- |
| Cc1ccc(/C(=C\CN2CCCC2)c2cccc(/C=C/C(=O)OC[C@H](CC(C)C)N(C)S(=O)(=O)c3ccc(Cn4c(C)nc5cnccc54)cc3)n2)cc1 [Example 8, (E)-3-(6-[Pyrrolidino-1-{4-tolyl}prop-1E-enyl]-2-pyridyl)acrylic acid, N-methyl-N-4-(1H-2-methylimidazo[4,5-c]pyridinylmethyl)-phenylsulphonyl-L-leucyl ester] | 0.16 | 46 |  |  |
| Cc1ccc(/C(=C\CN2CCCC2)c2cccc(/C=C/COC(=O)[C@H](CC(C)C)N(C)S(=O)(=O)c3ccc(Cn4c(C)nc5cnccc54)cc3)n2)cc1 [Example 17, 4-Methyl-2-{methyl-[4-(2-methyl-imidazo[4,5-c]pyridin-1-ylmethyl)-phenylsulphonyl]-amino}-pentanoic acid-(E)-3-(6-[3-pyrrolidino-1-{4-tolyl}-prop-1E-enyl]-pyridin-2-yl)-prop-2-en-1-yl ester] |  |  | 47 | 0.115 |
| Cc1nc2cnccc2n1Cc1ccc(S(=O)(=O)N(C)[C@@H](CC(C)C)C(=O)OC(CCCN2CCC(C(O)(c3ccccc3)c3ccccc3)CC2)c2ccc(C(C)(C)C)cc2)cc1 (stereo partly drawn) [Example 2, N-Methyl-N-4-(1H-2-methylimidazo[4,5-c]pyridinylmethyl)-phenylsulphonyl-L-leucine-2-(4-[1,1-dimethylethyl]phenyl)-4-(hydroxydiphenylmethyl)-1-piperidinebutyl ester] |  |  | 57 | 2.1 |
| Cc1nc2cnccc2n1Cc1ccc(S(=O)(=O)N(C)[C@@H](CC(C)C)C(=O)N2CCC(=C3c4ccc(Cl)cc4CCc4cccnc43)CC2)cc1 [Example 6, 4-(8-Chloro-5,6-dihydro-11H-benzo[5,6]cyclohepta[1.2-b]-pyridin-11-ylidene)-1-(N-methyl-N-4-{1H-2-methylimidazo[4,5-c]pyridinylmethyl}-phenylsulphonyl-L-leucyl)-piperidine amide] | 6.5 | 40 | 79 | 0.252 |
| CCOC[C@H](CC(C)C)N(CCCN(C)CCC(c1ccc(Cl)cc1)c1ccccn1)S(=O)(=O)c1ccc(Cn2c(C)nc3cnccc32)cc1 (stereo partly drawn) [Example 23, N-(3-{[3-(R,S)-(4-Chlorophenyl)-3-pyridin-2-yl-propyl]-methylamino}propyl)-N-(S)-(1-ethoxymethyl-3-methylbutyl)-4-(1H-2-methylimidazo[4,5-c]pyridin-1-ylmethyl)-phenylsulphonamide] |  |  | 33 | 0.3 |
| CCOC[C@H](CC(C)C)N(C/C=C/c1cccc(/C(=C/CN2CCCC2)c2ccc(C)cc2)n1)S(=O)(=O)c1ccc(Cn2c(C)nc3cnccc32)cc1 [Example 25, N-(S)-(1-Ethoxymethyl-3-methylbutyl)-N-{(E)-3-(6-[3-pyrrolidino-1-{4-tolyl}-prop-1E-enyl]-pyridin-2-yl)-prop-2-en-1-yl}-4-(1H-2-methylimidazo[4,5-c]pyridin-1-ylmethyl)-phenylsulphonamide] | 0.5 | 50 | 55 | 0.42 |
| Cc1nc2cnccc2n1Cc1ccc(S(=O)(=O)N(C)[C@@H](CC(C)C)C(=O)OCCCN2CCN(C(c3ccccc3)c3ccccc3)CC2)cc1 [Example 4, N-Methyl-N-4-(1H-2-methylimidazo[4,5-c]pyridinylmethyl)-phenylsulphonyl-L-leucine-3-(4-benzhydryl-piperazin-1-yl)-propyl ester] |  |  | 34 | 0.19 |
